Reference: the NIST ThermoML archive (doi:10.1021/je700647x)
Numbers after ± are expanded uncertainties.

Key:
[1] = xn = mol fraction of the nth substance listed; conditions: Ring tensiometer
[2] = Ring tensiometer

CCO [ethanol] + OCCN(CCO)CCO
Conditions	surface tension liquid-gas [mN/m]
[1], 298.15 K, x2 = 0	21.85 ± 0.35

CN(CCO)CCO [N-methyldiethanolamine] + CCO
surface tension liquid-gas [mN/m], [1]
Conditions	288.15 K	293.15 K	298.15 K	303.15 K	308.15 K	313.15 K
x1 = 0.0253	23.45 ± 0.38	23.11 ± 0.37	22.79 ± 0.39	22.49 ± 0.37	22.16 ± 0.36	21.92 ± 0.36
x1 = 0.0321	23.58 ± 0.38	23.24 ± 0.38	22.92 ± 0.37	22.63 ± 0.37	22.27 ± 0.37	22.04 ± 0.36
x1 = 0.1033	24.92 ± 0.4	24.59 ± 0.4	24.32 ± 0.39	24.06 ± 0.39	23.77 ± 0.39	23.58 ± 0.38
x1 = 0.1629	26.03 ± 0.42	25.7 ± 0.41	25.45 ± 0.41	25.26 ± 0.41	24.94 ± 0.4	24.81 ± 0.4
x1 = 0.1705	26.18 ± 0.42	25.83 ± 0.42	25.59 ± 0.41	25.38 ± 0.4	25.08 ± 0.41	24.98 ± 0.41
x1 = 0.2474	27.58 ± 0.44	27.24 ± 0.44	27.02 ± 0.43	26.79 ± 0.43	26.53 ± 0.43	26.44 ± 0.42
x1 = 0.3713	29.85 ± 0.48	29.47 ± 0.47	29.28 ± 0.47	28.95 ± 0.46	28.75 ± 0.46	28.63 ± 0.46
x1 = 0.4806	31.8 ± 0.51	31.4 ± 0.5	31.18 ± 0.5	30.84 ± 0.5	30.62 ± 0.49	30.49 ± 0.49
x1 = 0.5506	33.02 ± 0.53	32.6 ± 0.53	32.39 ± 0.52	32.01 ± 0.52	31.78 ± 0.51	31.66 ± 0.51
x1 = 0.7035	35.58 ± 0.58	35.06 ± 0.57	34.92 ± 0.57	34.48 ± 0.56	34.24 ± 0.56	34.07 ± 0.56
x1 = 0.7452	36.25 ± 0.59	35.71 ± 0.59	35.58 ± 0.58	35.08 ± 0.58	34.84 ± 0.57	34.66 ± 0.57
x1 = 0.8227	37.51 ± 0.62	36.91 ± 0.61	36.71 ± 0.61	36.09 ± 0.6	35.8 ± 0.59	35.57 ± 0.59
x1 = 0.9368	39.11 ± 0.66	38.42 ± 0.65	38.1 ± 0.64	37.39 ± 0.63	37 ± 0.62	36.73 ± 0.62
x1 = 1	39.99 ± 0.67	39.26 ± 0.66	38.92 ± 0.66	38.08 ± 0.64	37.63 ± 0.64	37.25 ± 0.63

CN(CCO)CCO [N-methyldiethanolamine]
[2]
Conditions	surface tension liquid-gas [mN/m]
288.15 K	39.99 ± 0.67
293.15 K	39.26 ± 0.66
298.15 K	38.92 ± 0.66
303.15 K	38.08 ± 0.64
308.15 K	37.63 ± 0.64
313.15 K	37.25 ± 0.63

CCO [ethanol] + CN(CCO)CCO
Conditions	surface tension liquid-gas [mN/m]
[1], 298.15 K, x2 = 0	21.85 ± 0.35

CCO [ethanol]
Conditions	surface tension liquid-gas [mN/m]
[2], 298.15 K	21.85 ± 0.35

OCCN(CCO)CCO [triethanolamine] + CCO
surface tension liquid-gas [mN/m], [1]
Conditions	x1 = 0.0795	x1 = 0.1461	x1 = 0.2209	x1 = 0.3266	x1 = 0.4581	x1 = 0.6263	x1 = 0.7725	x1 = 0.8489	x1 = 0.9304	x1 = 1
288.15 K	24.1 ± 0.39	25.4 ± 0.41	27.12 ± 0.44	29.68 ± 0.48	33.17 ± 0.53	37.65 ± 0.61	41.56 ± 0.68	43.57 ± 0.72	45.78 ± 0.76	47.64 ± 0.79
293.15 K	23.69 ± 0.38	25.02 ± 0.4	26.77 ± 0.43	29.34 ± 0.47	32.72 ± 0.53	37.11 ± 0.6	40.89 ± 0.67	42.86 ± 0.71	44.96 ± 0.75	46.77 ± 0.78
298.15 K	23.32 ± 0.38	24.7 ± 0.4	26.42 ± 0.43	28.97 ± 0.47	32.29 ± 0.52	36.57 ± 0.59	40.24 ± 0.66	42.16 ± 0.7	44.22 ± 0.74	45.88 ± 0.76
303.15 K	23.02 ± 0.38	24.41 ± 0.4	26.11 ± 0.42	28.61 ± 0.46	31.87 ± 0.51	36.02 ± 0.58	39.61 ± 0.65	41.47 ± 0.69	43.47 ± 0.73	45.16 ± 0.75
308.15 K	22.71 ± 0.37	24.12 ± 0.39	25.78 ± 0.42	28.21 ± 0.46	31.42 ± 0.51	35.48 ± 0.58	39 ± 0.64	40.83 ± 0.68	42.77 ± 0.71	44.42 ± 0.74
313.15 K	22.35 ± 0.37	23.81 ± 0.39	25.46 ± 0.41	27.79 ± 0.45	30.89 ± 0.5	34.82 ± 0.57	38.21 ± 0.63	39.97 ± 0.66	41.84 ± 0.7	43.4 ± 0.73

OCCN(CCO)CCO [triethanolamine]
[2]
Conditions	surface tension liquid-gas [mN/m]
288.15 K	47.64 ± 0.79
293.15 K	46.77 ± 0.78
298.15 K	45.88 ± 0.76
303.15 K	45.16 ± 0.75
308.15 K	44.42 ± 0.74
313.15 K	43.4 ± 0.73
